Results as given in ChEMBL document CHEMBL1909046, “DrugMatrix in vitro pharmacology data”.

Legend:
[1] = target: Beta-2 adrenergic receptor (Homo sapiens, UniProt P07550); assay: DRUGMATRIX: Adrenergic beta2 radioligand binding (ligand: [3H] CGP-12177); type: cell membranes, CHO, Membrane; conditions: cho; Not Active = under 50% inhibition at 10 µM
Cytochrome P450 2D6 = Cytochrome P450 2D6 (Homo sapiens, UniProt P10635); conditions: bti-tn-5b1-4; note: in other assays of this panel Not Active means under 50% inhibition at 10 µM
[2] = target: Beta-3 adrenergic receptor (Homo sapiens, UniProt P13945); assay: DRUGMATRIX: Adrenergic beta3 radioligand binding (ligand: [125I] Cyanopindolol); type: cell membranes, HEK293, Membrane; conditions: hek293; Not Active = under 50% inhibition at 10 µM
[3] = target: T1, Neuropeptide Y receptor type 1 (Homo sapiens, UniProt P25929); type: cell membranes, Membrane; conditions: sk-n-mc; note: in other assays of this panel Not Active means under 50% inhibition at 10 µM
T1 sequence (P25929 whole entry): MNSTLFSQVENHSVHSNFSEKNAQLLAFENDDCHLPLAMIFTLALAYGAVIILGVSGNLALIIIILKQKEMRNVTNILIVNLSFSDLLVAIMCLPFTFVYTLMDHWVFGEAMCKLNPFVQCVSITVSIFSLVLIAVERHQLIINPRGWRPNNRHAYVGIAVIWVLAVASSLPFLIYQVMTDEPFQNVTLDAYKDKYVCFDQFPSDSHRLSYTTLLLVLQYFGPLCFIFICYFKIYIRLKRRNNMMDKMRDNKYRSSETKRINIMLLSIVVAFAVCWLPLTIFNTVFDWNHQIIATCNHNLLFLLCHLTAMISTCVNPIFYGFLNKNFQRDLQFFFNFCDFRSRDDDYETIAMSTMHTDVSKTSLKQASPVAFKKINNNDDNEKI

Neutrophil elastase = target: T2, Neutrophil elastase (Homo sapiens, UniProt P08246); type: tissue-based;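 note: inhibition of neutrophil elastase enzyme activity, measured with a p-nitroanilide-linked peptide substrate; in other assays of this panel Not Active means under 50% inhibition at 10 µM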
T2 sequence (P08246 whole entry): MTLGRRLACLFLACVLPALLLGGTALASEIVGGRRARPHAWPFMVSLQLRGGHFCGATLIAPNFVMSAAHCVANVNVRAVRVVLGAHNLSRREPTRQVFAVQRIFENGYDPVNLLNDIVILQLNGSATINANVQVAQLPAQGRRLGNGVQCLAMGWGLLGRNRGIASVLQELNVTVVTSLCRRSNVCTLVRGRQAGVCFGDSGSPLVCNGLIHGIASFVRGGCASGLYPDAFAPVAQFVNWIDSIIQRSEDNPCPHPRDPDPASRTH

[4] = DRUGMATRIX: Leukotriene, BLT (LTB4) radioligand binding (ligand: [3H]LTB4); type: cell membranes, Membrane; conditions: u-937, Not Active = under 50% inhibition at 10 µM
[5] = DRUGMATRIX: Interleukin IL-1 radioligand binding (ligand: [125I] interleukin 1beta); type: cell membranes, Membrane; conditions: nih3t3; Not Active = under 50% inhibition at 10 µM

Chain of Beta-3 adrenergic receptor (P13945 whole entry): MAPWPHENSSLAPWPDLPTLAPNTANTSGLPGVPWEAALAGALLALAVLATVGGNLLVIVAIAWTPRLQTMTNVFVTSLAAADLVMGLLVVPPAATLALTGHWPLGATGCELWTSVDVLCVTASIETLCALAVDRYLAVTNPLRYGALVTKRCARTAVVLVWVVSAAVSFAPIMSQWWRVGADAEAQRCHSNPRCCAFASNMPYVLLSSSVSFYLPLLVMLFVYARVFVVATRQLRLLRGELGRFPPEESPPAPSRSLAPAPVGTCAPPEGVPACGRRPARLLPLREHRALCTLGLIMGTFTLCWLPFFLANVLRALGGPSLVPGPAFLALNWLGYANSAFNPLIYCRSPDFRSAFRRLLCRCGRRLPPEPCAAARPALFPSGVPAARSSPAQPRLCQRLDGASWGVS
Chain of Cytochrome P450 2D6 (P10635 whole entry): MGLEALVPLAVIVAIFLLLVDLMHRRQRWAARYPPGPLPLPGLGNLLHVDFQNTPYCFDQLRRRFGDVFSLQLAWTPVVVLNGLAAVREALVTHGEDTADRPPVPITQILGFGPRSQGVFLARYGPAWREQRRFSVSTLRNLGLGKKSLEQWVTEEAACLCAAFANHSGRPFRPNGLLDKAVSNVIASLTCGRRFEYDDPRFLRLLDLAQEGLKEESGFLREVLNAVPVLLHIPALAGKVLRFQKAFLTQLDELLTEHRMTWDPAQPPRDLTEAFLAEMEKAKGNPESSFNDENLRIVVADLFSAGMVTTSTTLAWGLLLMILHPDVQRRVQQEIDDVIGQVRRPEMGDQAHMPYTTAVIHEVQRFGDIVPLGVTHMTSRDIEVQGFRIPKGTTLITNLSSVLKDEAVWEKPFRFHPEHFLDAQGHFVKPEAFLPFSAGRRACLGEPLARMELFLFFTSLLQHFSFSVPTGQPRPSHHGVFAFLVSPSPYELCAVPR

| Compound | IC50 [1] | IC50 (Cytochrome P450 2D6) | Ki (Cytochrome P450 2D6) | IC50 [2] | IC50 [3] | IC50 (Neutrophil elastase) | IC50 ([4]; read-out: IC50) [µM] | Ki ([4]; read-out: Ki) [µM] | IC50 [5] | Ki [5] | IC50 [4] | Ki [4] | Ki [1] | Ki [2] | Ki [3] | Ki (Neutrophil elastase) |
| --- | --- | --- | --- | --- | --- | --- | --- | --- | --- | --- | --- | --- | --- | --- | --- | --- |
| N=C(N)c1ccc(OCCCCCOc2ccc(C(=N)N)cc2)cc1 [PENTAMIDINE] | Not Active | Not Active | Not Active | Not Active | Not Active | Not Active | 0.242 | 0.061 | Not Active | Not Active |  |  |  |  |  |  |
| CCc1ccc(CCOc2ccc(CC3SC(=O)NC3=O)cc2)nc1 (stereo not drawn) [PIOGLITAZONE] | Not Active | Not Active | Not Active | Not Active | Not Active | Not Active | 86.9 | 22.1 | Not Active | Not Active |  |  |  |  |  |  |
| CCCNC(C)C(=O)Nc1ccccc1C (stereo not drawn) [PRILOCAINE] | Not Active | Not Active | Not Active | Not Active | Not Active | Not Active |  |  | Not Active | Not Active | Not Active | Not Active |  |  |  |  |
| CCN(CC)CCNC(=O)c1ccc(N)cc1 [PROCAINAMIDE] | Not Active | Not Active | Not Active | Not Active | Not Active | Not Active |  |  | Not Active | Not Active | Not Active | Not Active |  |  |  |  |
| CCN(CC)CCCC(C)Nc1c2ccc(Cl)cc2nc2ccc(OC)cc12 (stereo not drawn) [QUINACRINE] | Not Active | Not Active | Not Active | Not Active | Not Active | Not Active |  |  | Not Active | Not Active | Not Active | Not Active |  |  |  |  |
| C[C@]12C=CC(=O)C=C1CC[C@H]1[C@@H]3C[C@@H](O)[C@](O)(C(=O)CO)[C@@]3(C)C[C@H](O)[C@@]12F [TRIAMCINOLONE] | Not Active | Not Active | Not Active | Not Active | Not Active | Not Active |  |  | Not Active | Not Active | Not Active | Not Active |  |  |  |  |
| CCN(C(C)=O)c1cccc(-c2ccnc3c(C#N)cnn23)c1 [ZALEPLON] | Not Active | Not Active | Not Active | Not Active | Not Active | Not Active |  |  | Not Active | Not Active | Not Active | Not Active |  |  |  |  |
| COBALTOUS CHLORIDE | Not Active | Not Active | Not Active | Not Active | Not Active | Not Active |  |  | Not Active | Not Active | Not Active | Not Active | Not Active | Not Active | Not Active | Not Active |
| COLISTIN | Not Active | Not Active | Not Active | Not Active | Not Active | Not Active |  |  | Not Active | Not Active | Not Active | Not Active | Not Active | Not Active | Not Active | Not Active |
